Measurements taken from the NIST ThermoML archive (doi:10.1021/je800046k).

Assay: xn = mol fraction of the nth substance listed
Conditions: for surface tension liquid-gas: Pendant drop shape; for mass density: 101 kPa, Liquid

Cc1cc(C)cc(C)c1 [1,3,5-trimethylbenzene] + CC(=O)OC(C)C
Conditions	mass density [kg/m3]	surface tension liquid-gas [mN/m]
298.15 K, x2 = 0	861.12	28.05
298.15 K, x2 = 0.0495	861.03	27.68
298.15 K, x2 = 0.1008	861.01	27.28
298.15 K, x2 = 0.1504	860.99	26.92
298.15 K, x2 = 0.199	861.02	26.52
298.15 K, x2 = 0.2514	861.07	26.15
298.15 K, x2 = 0.2996	861.13	25.79
298.15 K, x2 = 0.351	861.25	25.42
298.15 K, x2 = 0.4009	861.36	25.07
298.15 K, x2 = 0.4502	861.53	24.71
298.15 K, x2 = 0.5002	861.71	24.37
298.15 K, x2 = 0.5497	861.96	24.05
298.15 K, x2 = 0.6001	862.22	23.72
298.15 K, x2 = 0.6502	862.53	23.42
298.15 K, x2 = 0.7003	862.88	23.14
298.15 K, x2 = 0.7496	863.29	22.88
298.15 K, x2 = 0.7987	863.73	22.65
298.15 K, x2 = 0.8498	864.28	22.46
298.15 K, x2 = 0.8998	864.85	22.28
298.15 K, x2 = 0.9505	865.52	22.06
308.15 K, x2 = 0	852.94	27.21
308.15 K, x2 = 0.0501	852.69	26.78
308.15 K, x2 = 0.0993	852.53	26.37
308.15 K, x2 = 0.1514	852.38	25.94
308.15 K, x2 = 0.2	852.27	25.55
308.15 K, x2 = 0.2514	852.16	25.16
308.15 K, x2 = 0.3018	852.09	24.8
308.15 K, x2 = 0.353	852.03	24.42
308.15 K, x2 = 0.3991	852.01	24.06
308.15 K, x2 = 0.4503	852	23.69
308.15 K, x2 = 0.4993	852.03	23.35
308.15 K, x2 = 0.5492	852.08	23.01
308.15 K, x2 = 0.6	852.18	22.67
308.15 K, x2 = 0.65	852.3	22.36
308.15 K, x2 = 0.7003	852.47	22.05
308.15 K, x2 = 0.7499	852.68	21.79
308.15 K, x2 = 0.7993	852.92	21.52
308.15 K, x2 = 0.8488	853.23	21.31
308.15 K, x2 = 0.9004	853.61	21.14
308.15 K, x2 = 0.9506	854.03	20.92
313.15 K, x2 = 0	848.82	26.78
313.15 K, x2 = 0.0498	848.53	26.33
313.15 K, x2 = 0.1001	848.29	25.9
313.15 K, x2 = 0.1495	848.08	25.45
313.15 K, x2 = 0.2006	847.88	25.06
313.15 K, x2 = 0.25	847.71	24.67
313.15 K, x2 = 0.3005	847.55	24.28
313.15 K, x2 = 0.3497	847.43	23.9
313.15 K, x2 = 0.3998	847.3	23.54
313.15 K, x2 = 0.4508	847.22	23.18
313.15 K, x2 = 0.4998	847.16	22.82
313.15 K, x2 = 0.5496	847.13	22.49
313.15 K, x2 = 0.6007	847.12	22.13
313.15 K, x2 = 0.6504	847.16	21.83
313.15 K, x2 = 0.7	847.23	21.5
313.15 K, x2 = 0.7495	847.33	21.22
313.15 K, x2 = 0.7993	847.48	20.96
313.15 K, x2 = 0.8507	847.68	20.73
313.15 K, x2 = 0.9008	847.93	20.52
313.15 K, x2 = 0.9504	848.25	20.36
